According to US9688760B2, “Anti-leukocyte adhesion for the mitigation of potential adverse events caused by CD3-specific binding domains” (AMGEN RESEARCH (MUNICH) GMBH, priority 2013, dated 2017):
Like-named read-outs stand apart in the source and are kept apart here.

Columns and labels:
[1] = system: ICAM-1 and P-selectin on HUVEC; assay: Immunofluorescence staining of HUVEC after T cell-rolling; type: cell-based, human; conditions: T cells pre-incubated with 10 ng/ml Blinatumomab vs untouched T cells
Experimental: After rolling and adhesion of T cells on HBMEC or HUVEC under flow conditions, endothelial cells were fixed using 150 μl of 4% paraformaldehyde solution (#P-6148, Sigma-Aldrich) for 30 min at 4° C. μ-slides were rinsed with 150 μl of D-PBS and subjected to immunofluorescence staining. HBMEC were first blocked with 150 μl of avidin blocking reagent (#PHA-70871, reagent 1, Dianova) for 10 min at room temperature, washed with 150 μl of D-PBS followed by incubation with 150 μl of biotin blocking reagent (#PHA-70871, reagent 2, Dianova). All following staining procedures were performed in 150 μl of D-PBS with 5% FBS at room temperature in the dark, and washing steps were done in 150 μl of D-PBS. μ-slides were incubated with 5 μg/ml polyclonal rabbit anti-human VCAM-1 (#106777, abcam) for 1 h. After washing, 20 μg/ml goat anti-rabbit IgG-DyLight350 was added for 1 h followed by washing and incubation with 15 μg/ml mouse anti-human P-selectin IgG1 (#BBA30, R&D Systems) for 2 h. After washing, goat anti-mouse IgG-Alexa488 (1:100) (#A10680, Invitrogen) was added for 1 h. […] VCAM-1 staining was monitored with a CFL EPI-FL Filter Block UV-2A (#MBE41200, Nikon), P-selectin staining with a CFL EPI-FL Filter Block GFP-B (#MBE44740, Nikon), and ICAM-1 staining with an EPI-FL Filter Block Cy3 (#MXU96213, Nikon). […]

[2] = system: HUVEC; assay: In vitro flow chamber: T cell-rolling and adhesion on HUVEC, short-term conditions; type: cell-based, human
Experimental: Human brain microvascular endothelial cells (HBMEC) (#1000, Sciencell Research Laboratories) or human umbilical vein endothelial cells (HUVEC) (#C-12200, Promocell) were used as endothelial cell-model. Cryopreserved HBMEC at passage 1 (>5×10^5 cells/ml) were first cultivated in fibronectin-coated Nunclon-treated 75 cm^2 cell culture flasks (#156499, Nunc) at 37° C. and 5% CO2 in a Heraeus Cytoperm 2 (Thermo Scientific) according to the manufacturer's instructions. Sub-cultivation of HBMEC was done with the Detach Kit (#C-41200, Promocell) consisting of HEPES-buffered balanced salt solution (#C-40000, Promocell), trypsin-EDTA solution (0.04%/0.03%) (#C-41000, Promocell) and trypsin neutralization solution (TNS, #C-41100, Promocell). Briefly, the medium was aspirated from the HBMEC-layer and cells were washed with 2 ml of HEPES-buffered balanced salt solution. Addition of 2 ml of trypsin-EDTA solution for 1-5 min at room temperature led to detachment of HBMEC from the flask bottom. Inactivation of trypsin-EDTA solution was performed by addition of 2 ml of trypsin neutralization solution to the cell suspension. Cells were centrifuged at 300 g for 4 min in a Heraeus Megafuge 40 (Thermo Scientific) and seeded at a cell density of 5×10^5 cells per gelatin-coated 75 cm^2 cell culture flask (#L7230, Biochrom). […]

[3] = system: patients; conditions: cited from earlier work

With “Blinatumomab: recombinant CD19×CD3 bispecific scFv antibody consisting of four immunoglobulin variable domains assembled into a single polypeptide chain” the “surface expression of adhesion molecules on HUVEC” value [1] was “increased surface expression of adhesion molecules ICAM-1 and P-selectin”, the “mean rolling velocity±SD” value ([2]; T cells pre-incubated with 10 ng/ml Blinatumomab for 45 min, short-term (45 sec), 1 dyn/cm^2, control −AMG 103 283±82) was 237±45 μm/sec and the “increase of number of T cells firmly adhering to HUVEC” value ([2]; pre-incubation with 10 ng/ml Blinatumomab, short-term conditions, vs −AMG 103) was 2.6 fold. For the same substance, the “effect on malignant B cells in bone marrow and liver” value ([3]; B-NHL) was “clearance of malignant B cells from bone marrow and liver”, the clinical response ([3]; B-NHL, dose level of 0.015 mg/m^2/day) was “Partial and complete responses were first observed” and the “effect on B lymphoma cells in peripheral blood” value ([3]; B-NHL, doses as low as 0.005 mg/m^2/day civ infusion over four weeks) was “complete and sustained elimination of B lymphoma cells in peripheral blood”. The clinical response ([3]; B-precursor ALL, minimal residual disease and relapsed or refractory, four-week civ infusions, 0.015 mg/m^2/day) was “hematological complete response” and the clinical response ([3]; majority of B-NHL patients, dose level of 0.06 mg/m^2/day) was “substantial tumor regression”.
